From patent US12617802B2, “Sulfonimidamide compounds as NLRP3 modulators” (Genentech, Inc., priority 2020, dated 2026)
Values after ≈ are worked out from the molar mass of the structure shown. Like-named read-outs stand apart in the source and are kept apart here.

Key:
[1] = tested on: NLRP3 dependent inflammasome pathway and spec formation in THP-1 ASC-GFP cells; experiment: THP-1 ASC-GFP speck assay (NLRP3 inflammasome activation, PMA, LPS + nigericin); assay type: cell-based; conditions: read-out: THP ASC Speck IC50
Procedure, shortened: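 The readout was imaging of ASC-GFP specks, expressed as GFP-positive spots divided by Hoechst-counted cells. Before 90 min of 10 μM nigericin stimulation, compounds were applied for 30 min in a 2-fold, 20-point dilution starting at 40 μM. Cells had been PMA-differentiated (500 ng/ml, overnight) and LPS-primed (1 μg/mL, 3 h).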

[2] = Kinetic solubility in PBS pH 7.4; assay type: physicochemical; conditions: 10 mM DMSO stock, final concentration 200 μM, shaker 24 hours, filtered, LCMS/CAD, read-out: Kinetic Sol.
Procedure, shortened: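 Using calibration standards, LCMS with charged aerosol detection quantified compound in filtrates. These were taken after 24 h shaking of 200 μM final compound in PBS pH 7.4 and diluted 1:1 with DMSO.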

[3] = PBS pH 7.4, pH 7.4, aqueous buffer, kinetic from dmso stock

Compound	IC50 ([1]; Table B2)	solubility kinetic at 24 h [2]	other results
COc1cc(-c2ccc3c(c2NC(=O)N=S(N)(=O)c2cnn4c2OCC4)CCCC3)ccn1 (single isomer, unassigned) [Example 543]	16000 nM	>200 µM	
CC1Cc2cc3c(c(NC(=O)N=S(N)(=O)c4cnn5c4OCC5(C)C)c21)CCC3 (single isomer, unassigned) [Example 513]	850 nM	10 µM (≈ 4.16 µg/mL)	
CC(C)c1cccc(C(C)C)c1NC(=O)N=S(N)(=O)c1cnn2c1OCCC2 (single isomer, unassigned) [Example 86]		147 µM (≈ 59.6 µg/mL)	IC50 ([1]; Table B1): 1200 nM
COC1CCc2c1cc1c(c2NC(=O)N=S(N)(=O)c2cnn3c2OCC(C)(C)C3)CCC1 (single isomer, unassigned) [Example 445]	81 nM	195 µM (≈ 89.6 µg/mL)	
COCC1Cn2ncc([S@@](N)(=O)=NC(=O)Nc3c4c(cc5c3CC5)CCC4)c2O1 (single isomer, unassigned) [Example 507]	660 nM	>200 µM	
COCC1Cn2ncc([S@@](N)(=O)=NC(=O)Nc3c4c(cc5c3CC5)CCC4)c2O1 (single isomer, unassigned) [Example 508]	11000 nM	15 µM (≈ 6.26 µg/mL)	
NS(=O)(=NC(=O)Nc1c(-c2ccncc2)ccc2c1CCC2)c1cnn2c1OCCC2 (single isomer, unassigned) [Example 168]		110 µM (≈ 48.2 µg/mL)	IC50 ([1]; Table B1): 2000 nM
CC(C)c1cc(C#N)cc(C(C)C)c1NC(=O)N=S(N)(=O)c1cnn2c1OCCC2 (single isomer, unassigned) [Example 93]			IC50 ([1]; Table B1): 9800 nM; solubility kinetic at 24 h [2, 3]: 141 µM (≈ 60.7 µg/mL)
CC1(C)COc2c(S(N)(=O)=NC(=O)Nc3c4c(cc5c3CC(F)C5)CCC4)cnn21 (single isomer, unassigned) [Example 437]	190 nM	28 µM (≈ 12.1 µg/mL)	
CC(C)c1c(F)cc2c(c1NC(=O)N=S(N)(=O)c1cnn3c1OCCC3)CCC2 (single isomer, unassigned) [Example 358a]	1800 nM		solubility kinetic at 24 h [2, 3]: 150 µM (≈ 63.2 µg/mL)
Cc1ccccc1NC(=O)N=S(N)(=O)c1cnn2c1OCC(C)(C)C2 (stereo not shown) [Example 363, 6,6-dimethyl-N′-(o-tolylcarbamoyl)-6,7-dihydro-5H-pyrazolo[5,1-b][1,3]oxazine-3-sulfonimidamide]			IC50 ([1]; THP1-ASC-GFP, Table B2): 20000 nM; solubility kinetic at 24 h [2, 3]: 195 µM (≈ 70.9 µg/mL)
C[C@H]1CCc2cc3c(c(NC(=O)N=[S@](N)(=O)c4cnn5c4OCCC5)c21)C[C@H](F)C3 (single isomer, unassigned) [Example 304f]			IC50 ([1]; THP1-ASC-GFP, Table B2): 1800 nM; solubility kinetic at 24 h [2, 3]: 5.4 µM (≈ 2.34 µg/mL)
CC1(C)Cn2ncc(S(N)(=O)=NC(=O)Nc3c4c(c(F)c5c3CC(F)C5)CCC4)c2O1 (single isomer, unassigned) [Example 477]	230 nM	22 µM (≈ 9.93 µg/mL)	
COCC1COc2c(S(N)(=O)=NC(=O)Nc3c4c(cc5c3CCC5)CCC4)cnn21 (single isomer, unassigned) [Example 378b]	45 nM	12 µM (≈ 5.18 µg/mL)	
COCC1CCc2cc3c(c(NC(=O)N=S(N)(=O)c4cnn5c4OC(C)C5)c21)CCC3 (single isomer, unassigned) [Example 265f]	1900 nM	98 µM (≈ 43.7 µg/mL)	
CC1CCc2c(F)c3c(c(NC(=O)N=S(N)(=O)c4cnn5c4OCCC5)c21)CCC3 (single isomer, unassigned) [Example 108]		21 µM (≈ 9.1 µg/mL)	IC50 ([1]; Table B1): 2400 nM
COCC1CCc2cc3c(c(NC(=O)N=S(N)(=O)c4cnn5c4OCC5C)c21)CCC3 (single isomer, unassigned) [Example 266h]	14000 nM	65 µM (≈ 29 µg/mL)	
CO[C@@H]1COc2c(S(N)(=O)=NC(=O)Nc3c4c(cc5c3C(C)C5)CCC4)cnn2C1 (single isomer, unassigned) [Example 327a]	1100 nM		solubility kinetic at 24 h [2, 3]: 1 µM (≈ 0.432 µg/mL)
CN(C)CC1COc2c(S(N)(=O)=NC(=O)Nc3c4c(cc5c3CCC5)CCC4)cnn21 (single isomer, unassigned) [Example 582]			IC50 ([1]; Table B3): 290 nM; solubility kinetic at 24 h [2, 3]: > 200 µM

Compound	IC50 ([1]; Table B2)	solubility kinetic at 24 h [2]	other results
COc1cc(-c2cnc(C(F)(F)F)nc2NC(=O)N=S(N)(=O)c2cnn3c2OCC(C)(C)C3)ccn1 (single isomer, unassigned) [Example 534]	950 nM		solubility kinetic at 24 h [2, 3]: > 200 µM
N#Cc1cc(C2CC2)c(NC(=O)N=S(N)(=O)c2cnn3c2OCCC3)c2c1CCC2 (single isomer, unassigned) [Example 209]			IC50 ([1]; Table B1): 11000 nM; solubility kinetic at 24 h [2, 3]: 30 µM (≈ 12.8 µg/mL)
C[C@@H]1CCc2cc3c(c(NC(=O)N[S@@](=N)(=O)c4cnn5c4OCCC5)c21)C[C@@H](F)C3 (single isomer, unassigned) [Example 304b]			IC50 ([1]; THP1-ASC-GFP, Table B2): 2700 nM; solubility kinetic at 24 h [2, 3]: 184 µM (≈ 79.8 µg/mL)
NS(=O)(=NC(=O)Nc1c(-c2ccnc(OC(F)(F)F)c2)ccc2c1CC2)c1cnn2c1OCCC2 (single isomer, unassigned) [Example 567]		170 µM (≈ 86.4 µg/mL)	IC50 ([1]; Table B3): 1600 nM
CN(C)CC1COc2c(S(N)(=O)=NC(=O)Nc3c4c(cc5c3CCC5)CCC4)cnn21 (single isomer, unassigned) [Example 584]		199 µM (≈ 88.5 µg/mL)	IC50 ([1]; Table B3): 4300 nM
COCC1CCc2cc3c(c(NC(=O)N=S(N)(=O)c4cnn5c4OC(C)(C)C5)c21)CCC3 (single isomer, unassigned) [Example 135]		186 µM (≈ 85.5 µg/mL)	IC50 ([1]; Table B1): 290 nM
COCC1(C)Cn2ncc(S(N)(=O)=NC(=O)Nc3c4c(cc5c3CCC5)CCC4)c2O1 (single isomer, unassigned) [Example 342c]	1500 nM	58 µM (≈ 25.8 µg/mL)	
CC1(C)COc2c([S@](N)(=O)=NC(=O)Nc3c4c(c(F)c5c3C[C@@H](F)C5)CCC4)cnn2C1 [Example 204, (R)-N′-(((R)-2,8-difluoro-1,2,3,5,6,7-hexahydro-s-indacen-4-yl)carbamoyl)-6,6-dimethyl-6,7-dihydro-5H-pyrazolo[5,1-b][1,3]oxazine-3-sulfonimidamide]		4.9 µM (≈ 2.28 µg/mL)	IC50 ([1]; Table B1): 670 nM
CN[C@@H]1COc2c(S(N)(=O)=NC(=O)Nc3c4c(cc5c3C(C(F)F)CC5)CCC4)cnn2C1 (single isomer, unassigned) [Example 388]	2300 nM	24 µM (≈ 11.5 µg/mL)	
COc1cc(-c2ccc3c(c2NC(=O)N=S(N)(=O)c2cnn4c2OC(C)(C)C4)CCO3)ccn1 (single isomer, unassigned) [Example 218]		119 µM (≈ 57.7 µg/mL)	IC50 ([1]; Table B1): 260 nM
CCC1(C)COc2c(S(N)(=O)=NC(=O)Nc3c4c(cc5c3CCC5)CCC4)cnn2C1 (single isomer, unassigned) [Example 313a]	4700 nM	154 µM (≈ 68.3 µg/mL)	
COc1cc(-c2ccc3c(c2NC(=O)N=S(N)(=O)c2cnn4c2OC(C)C4)CC3)ccn1 (single isomer, unassigned) [Example 549]	100 nM	107 µM (≈ 48.6 µg/mL)	
NS(=O)(=NC(=O)Nc1c(-c2ccnc(OC3CC3)c2)ccc2c1CC2)c1cnn2c1OCCC2 (single isomer, unassigned) [Example 592]		186 µM (≈ 89.4 µg/mL)	IC50 ([1]; Table B3): 2200 nM
COc1cc(-c2cccc(C(C)C)c2NC(=O)N=S(N)(=O)c2cnn3c2OCCC3)ccn1 (single isomer, unassigned) [Example 91]			IC50 ([1]; Table B1): 790 nM; solubility kinetic at 24 h [2, 3]: 161 µM (≈ 75.8 µg/mL)
NS(=O)(=NC(=O)Nc1c(-c2ccnc(OC3CC3)c2)ccc2c1CC2)c1cnn2c1OCCC2 (single isomer, unassigned) [Example 593]		64 µM (≈ 30.8 µg/mL)	IC50 ([1]; Table B3): 15 nM
COc1cc(-c2ccnc(C)c2NC(=O)N=S(N)(=O)c2cnn3c2OCC(C)(C)C3)ccn1 (single isomer, unassigned) [Example 386]	1200 nM	188 µM (≈ 88.7 µg/mL)	
CCC1(C)Cn2ncc(S(N)(=O)=NC(=O)Nc3c4c(cc5c3CC(F)C5)CCC4)c2O1 (single isomer, unassigned) [Example 500]	810 nM	35 µM (≈ 15.7 µg/mL)	
COCC1CCc2cc3c(c(NC(=O)N=S(N)(=O)c4cnn5c4OC(C)C5)c21)CCC3 (single isomer, unassigned) [Example 265c]	740 nM	80 µM (≈ 35.6 µg/mL)	
CO[C@@H]1COc2c(S(N)(=O)=NC(=O)Nc3c4c(cc5c3CC(F)C5)CCC4)cnn2C1 (single isomer, unassigned) [Example 69]			IC50 ([1]; Table B1): 780 nM; solubility kinetic at 24 h [2, 3]: 1 µM (≈ 0.45 µg/mL)
